# US20250144067A1, “PERSONALIZED STARVATION THERAPY FOR CANCER” (Faeth Therapeutics, Inc., priority 2021, published 2025)
# Where a name gives a salt, the structure may show the parent alone. Read-outs that look alike come from different tables or passages of the source.
# Experiments:
# [1] = system: NCI-H292 lung cancer cells; assay: FDA drug screening, complete media vs cholesterol-free media with simvastatin (TABLE 2); type: cell-based, human
# [2] = system: NCI-H292 lung cancer cells; assay: FDA drug screening, complete media vs cholesterol-free media without statin (TABLE 1); type: cell-based, human
# [3] = NCI-H292 cells, cholesterol-free media with simvastatin 0.04 μM, FDA drug library screen (TABLE 2)
# [4] = NCI-H292 cells, complete media, FDA drug library screen (TABLE 2)
# [5] = Complete minus Cholesterol-free, […]
# [6] = NCI-H292 cells, FDA drug library screen, cholesterol-free media without statin
# [7] = complete media minus cholesterol-free media + simvastatin (0.04 μM), >0 enhanced anti-cancer activity, about 0 neutral, <0 antagonist
# [8] = Complete minus Cholesterol-free, greater than 0 enhanced anti-cancer activity, about 0 neutral, below 0 antagonists
# [9] = NCI-H292 cells in cholesterol-free media without statin
# [10] = NCI-H292 cells in complete media
# [11] = NCI-H292 cells, cholesterol-free media without statin, FDA drug library screen
# [12] = NCI-H292 cells, complete media, FDA drug library screen
# [13] = complete vs cholesterol-free media, >0 enhanced anti-cancer activity, about 0 neutral, <0 antagonist
# [14] = NCI-H292 cells, FDA drug library screen, cholesterol-free media with simvastatin 0.04 μM
# [15] = NCI-H292 cells, FDA drug library screen, complete media
# [16] = NCI-H292 cells, cholesterol-free media without statin
# [17] = NCI-H292 cells, drug in cholesterol-free media with simvastatin 0.04 μM
# [18] = NCI-H292 cells, drug in complete media
# [19] = complete media vs cholesterol-free media + simvastatin (0.04 μM), >0 enhanced anti-cancer activity, about 0 neutral, <0 antagonist
# [20] = Complete minus Cholesterol-free, greater than 0 enhanced anti-cancer activity, about 0 neutral, below 0 antagonist
# [21] = Complete minus Cholesterol-free, >0 enhanced anti-cancer activity, about 0 neutral, <0 antagonist
# [22] = complete media minus cholesterol-free media + simvastatin, >0 enhanced anti-cancer activity, about 0 neutral, <0 antagonist
# [23] = NCI-H292 cells, FDA library drug in cholesterol-free media with simvastatin 0.04 μM
# [24] = NCI-H292 cells, FDA library drug in complete media
# [25] = NCI-H292 cells, cholesterol-free media with simvastatin 0.04 μM, cell growth value in FDA drug screen
# [26] = NCI-H292 cells, complete media, cell growth value in FDA drug screen
# [27] = complete vs cholesterol-free media, greater than 0 enhanced anti-cancer activity, about 0 neutral, below 0 antagonists
compound,measurement,setting,value
Cc1c(C(=O)Nc2ccc(S(C)(=O)=O)cc2)cn(CCO)c1-c1ccccc1C(F)(F)F [Esaxerenone],Cholesterol-free media + simvastatin (0.04 μM),[1]; [3],0.9763
same,Complete Media,[1]; [4],0.9118
same,Difference,"[1]; complete media minus cholesterol-free media + simvastatin (0.04 μM), […]",−0.06
same,Difference,[2]; [5],−0.14
same,Cholesterol-free,[2]; [6],1.29
CO[C@@]1(NC(=O)Cc2cccs2)C(=O)N2C(C(=O)O)=C(COC(N)=O)CS[C@@H]21 [Cefoxitin (sodium)],Cholesterol-free media + simvastatin (0.04 μM),[1]; [3],0.9202
same,Complete Media,[1]; [4],0.8818
same,Difference,[1]; [7],−0.04
same,Difference,[2]; [8],−0.48
same,Cholesterol-free,[2]; [9],1.299
same,Complete,[2]; [10],0.8161
Cc1nnc(NS(=O)(=O)c2ccc(N)cc2)s1 [Sulfamethizole],Cholesterol-free media + simvastatin (0.04 μM),[1]; [3],1.154
same,Complete Media,[1]; [4],1.13
same,Difference,[1]; [7],−0.02
same,Cholesterol-free,[2]; [11],0.6059
same,Complete,[2]; [12],1.186
same,Difference,[2]; [13],0.58
CN(C(=O)/C=C/c1ccoc1)[C@@H]1CC[C@@]2(O)[C@H]3Cc4ccc(O)c5c4[C@@]2(CCN3CC2CC2)[C@H]1O5 [Nalfurafine (hydrochloride)],Cholesterol-free media + simvastatin (0.04 μM),[1]; [14],1.083
same,Complete Media,[1]; [15],0.926
same,Difference,"[1]; complete media vs cholesterol-free media + simvastatin (0.04 μM), […]",−0.16
same,Difference,[2]; [5],−0.29
same,Cholesterol-free,[2]; [16],1.222
same,Complete,"[2]; NCI-H292 cells, complete media",0.931
CO/N=C(\C(=O)N[C@@H]1C(=O)N2C(C(=O)OCOC(=O)C(C)(C)C)=C(C)CS[C@H]12)c1csc(N)n1.Cl [Cefetamet pivoxil (hydrochloride)],Cholesterol-free media + simvastatin (0.04 μM),[1]; [17],1.058
same,Complete Media,[1]; [18],0.852
same,Difference,[1]; [19],−0.21
same,Difference,[2]; [20],−0.16
same,Cholesterol-free,[2]; [6],1.076
same,Complete,[2]; [15],0.9196
CCCN(CCC)C(=O)C(CCC(=O)O)NC(=O)c1ccccc1 (centres unmarked) [Proglumide (sodium)],Cholesterol-free media + simvastatin (0.04 μM),[1]; [17],1.215
same,Complete Media,[1]; [18],0.9616
same,Difference,[1]; [19],−0.25
same,Difference,[2]; [21],−0.28
same,Cholesterol-free,[2]; [16],1.258
same,Complete,"[2]; NCI-H292 cells, complete media",0.9781
CC(C)[C@H](N)C(=O)OCC(CO)OCn1cnc2c(=O)nc(N)[nH]c21 (some centres unmarked) [Valganciclovir (hydrochloride)],Cholesterol-free media + simvastatin (0.04 μM),[1]; [14],0.9599
same,Complete Media,[1]; [15],1.178
same,Difference,[1]; [22],0.22
same,Difference,[2]; [21],−0.03
same,Cholesterol-free,[2]; [11],1.042
same,Complete,[2]; [12],1.007
OCC(S)CS (centres unmarked) [Dimercaprol],Cholesterol-free media + simvastatin (0.04 μM),[1]; [14],0.8801
same,Complete Media,[1]; [15],1.094
same,Difference,[1]; [22],0.21
same,Difference,[2]; [20],−0.18
same,Cholesterol-free,[2]; [6],0.9919
same,Complete,[2]; [15],0.8115
Doxazosin (mesylate),Cholesterol-free media + simvastatin (0.04 μM),[1]; [23],1.325
same,Complete Media,[1]; [24],0.9839
same,Difference,[1]; [19],−0.34
same,Difference,[2]; [8],−0.61
same,Cholesterol-free,[2]; [9],1.69
same,Complete,[2]; [10],1.083
C[C@H](O)[C@H](O)[C@H]1CNc2nc(N)[nH]c(=O)c2N1 [Tetrahydrobiopterin],Cholesterol-free media + simvastatin (0.04 μM),[1]; [23],1.389
same,Complete Media,[1]; [24],1.025
same,Difference,[1]; [19],−0.36
same,Difference,[2]; [20],−0.10
same,Cholesterol-free,[2]; [6],0.9498
same,Complete,[2]; [15],0.8545
CC[N+](CC)(CC)CCOc1cccc(OCC[N+](CC)(CC)CC)c1OCC[N+](CC)(CC)CC [Gallamine Triethiodide],Cholesterol-free media + simvastatin (0.04 μM),[1]; [23],1.372
same,Complete Media,[1]; [24],1.027
same,Difference,[1]; [19],−0.35
same,Difference,[2]; [21],−0.28
same,Cholesterol-free,[2]; [16],1.311
same,Complete,"[2]; NCI-H292 cells, complete media",1.029
CCc1c2c(nc3ccc(OC(=O)N4CCC(N5CCCCC5)CC4)cc13)-c1cc3c(c(=O)n1C2)COC(=O)[C@]3(O)CC [Irinotecan (hydrochloride)],Cholesterol-free media + simvastatin (0.04 μM),[1]; [25],0.928
same,Complete Media,[1]; [26],1.063
same,Difference,[1]; [22],0.13
same,Difference,[2]; [21],0.02
same,Cholesterol-free,[2]; [11],1.352
same,Complete,[2]; [12],1.37
Cc1cc(O)cc(C)c1Cl [Chloroxylenol],Cholesterol-free media + simvastatin (0.04 μM),[1]; [3],0.9866
same,Complete Media,[1]; [4],0.951
same,Difference,[1]; [7],−0.04
same,Difference,[2]; [21],−0.19
same,Cholesterol-free,[2]; [16],1.219
same,Complete,"[2]; NCI-H292 cells, complete media",1.028
CCC(C)(Oc1ccc(C2(c3ccc(OC(C)(CC)C(=O)O)cc3)CCCCC2)cc1)C(=O)O (centres unmarked) [Clinofibrate],Cholesterol-free media + simvastatin (0.04 μM),[1]; [17],1.342
same,Complete Media,[1]; [18],1.081
same,Difference,[1]; [19],−0.26
same,Cholesterol-free,[2]; [16],1.347
same,Complete,"[2]; NCI-H292 cells, complete media",1.007
same,Difference,[2]; [27],−0.34
N=C(N)NCCCC(N)C(=O)O (racemic) [DL-Arginine],Cholesterol-free media + simvastatin (0.04 μM),[1],0.9889
same,Complete Media,[1],0.9776
same,Difference,[1],−0.01
same,Cholesterol-free,[2],1.525
same,Complete,[2],1.476
same,Difference,[2],−0.05
Nc1nc2c(ncn2COCCO)c(=O)[nH]1 [Acyclovir],Cholesterol-free media + simvastatin (0.04 μM),[1]; [14],1.866
same,Complete Media,[1]; [15],1.782
same,Difference,[1]; [19],−0.08
same,Cholesterol-free,[2]; [11],0.843
same,Complete,[2]; [12],1.434
same,Difference,[2]; [13],0.59
NCC(CC(=O)O)c1ccc(Cl)cc1 (centres unmarked) [Baclofen],Cholesterol-free media + simvastatin (0.04 μM),[1]; [25],0.9225
same,Complete Media,[1]; [26],1.02
same,Difference,[1]; [22],0.10
same,Cholesterol-free,[2]; [11],0.5541
same,Complete,[2]; [12],1.886
same,Difference,[2]; [13],1.33
C[C@]12CCC(=O)C=C1CC[C@@H]1[C@@H]2[C@@H](O)C[C@@]2(C)[C@H]1CC[C@]2(O)C(=O)CO [Hydrocortisone],Cholesterol-free media + simvastatin (0.04 μM),[1]; [25],0.4287
same,Complete Media,[1]; [26],0.4959
same,Difference,[1]; [22],0.07
same,Cholesterol-free,[2]; [11],0.8914
same,Complete,[2]; [12],1.03
same,Difference,[2]; [13],0.14
CC(=O)O[C@]1(C(C)=O)CC[C@H]2[C@@H]3C=C(Cl)C4=CC(=O)CC[C@]4(C)[C@H]3CC[C@@]21C [Chlormadinone acetate],Cholesterol-free media + simvastatin (0.04 μM),[1]; [3],1.079
same,Complete Media,[1]; [4],1.06
same,Difference,[1]; [7],−0.02
same,Difference,[2]; [8],−0.74
same,Cholesterol-free,[2]; [9],1.695
same,Complete,[2]; [10],0.9505
Azatadine (dimaleate),Cholesterol-free media + simvastatin (0.04 μM),[1]; [3],1.086
same,Complete Media,[1]; [4],1.047
same,Difference,[1]; [7],−0.04
same,Difference,[2]; [20],−0.16
same,Cholesterol-free,[2]; [6],1.286
same,Complete,[2]; [15],1.13
C=C[C@H]1C[N@@]2CC[C@H]1C[C@H]2[C@H](O)c1ccnc2ccc(OC)cc12 [Quinine],Difference,[1]; [19],−0.10
same,Cholesterol-free,[2]; [16],1.498
same,Difference,[2]; [27],−0.37
C=C1C[C@@H]2[C@H](CC[C@]3(C)C(=O)CC[C@@H]23)[C@@]2(C)C=CC(=O)C=C12 [Exemestane],Cholesterol-free media + simvastatin (0.04 μM),[1]; [23],1.215
same,Complete Media,[1]; [24],0.9053
same,Difference,[1]; [19],−0.31
same,Difference,[2]; [21],−0.01
same,Cholesterol-free,[2]; [11],1.056
same,Complete,[2]; [12],1.048
O=C(O)c1cc(O)c(O)c(O)c1 [Gallic acid],Cholesterol-free media + simvastatin (0.04 μM),[1]; [23],2.089
same,Complete Media,[1]; [24],1.613
same,Difference,[1]; [19],−0.48
same,Difference,[2]; [20],−0.08
same,Cholesterol-free,[2]; [6],1.301
same,Complete,[2]; [15],1.222
Cc1ccc(C(=O)Nc2ccc(S(=O)(=O)O)c3cc(S(=O)(=O)O)cc(S(=O)(=O)O)c23)cc1NC(=O)c1cccc(NC(=O)Nc2cccc(C(=O)Nc3cc(C(=O)Nc4ccc(S(=O)(=O)O)c5cc(S(=O)(=O)O)cc(S(=O)(=O)O)c45)ccc3C)c2)c1 [Suramin (sodium salt)],Cholesterol-free media + simvastatin (0.04 μM),[1]; [23],1.303
same,Complete Media,[1]; [24],0.9716
same,Difference,[1]; [19],−0.33
same,Difference,[2]; [8],−0.70
same,Cholesterol-free,[2]; [9],1.64
same,Complete,[2]; [10],0.9404
C[N+](C)(C)CCOP(=O)([O-])OC[C@H](O)CO [sn-Glycero-3-phosphocholine],Cholesterol-free media + simvastatin (0.04 μM),[1]; [23],0.9593
same,Complete Media,[1]; [24],0.5999
same,Difference,[1]; [19],−0.36
same,Difference,[2]; [20],−0.10
same,Cholesterol-free,[2]; [6],0.9108
same,Complete,[2]; [15],0.8124
CCOC(=O)C1=C(COCCN)NC(C)=C(C(=O)OC)C1c1ccccc1Cl (centres unmarked) [Amlodipine],Cholesterol-free media + simvastatin (0.04 μM),[1]; [14],1.424
same,Complete Media,[1]; [15],1.705
same,Difference,[1]; [22],0.28
same,Cholesterol-free,[2]; [11],0.797
same,Complete,[2]; [12],1.434
same,Difference,[2]; [13],0.64
CCCN[C@@H]1CCc2nc(N)sc2C1 [Dexpramipexole (dihydrochloride)],Cholesterol-free media + simvastatin (0.04 μM),[1]; [3],1.099
same,Complete Media,[1]; [4],1.11
same,Difference,[1]; [7],0.01
same,Cholesterol-free,[2]; [16],0.9915
same,Complete,"[2]; NCI-H292 cells, complete media",0.5799
same,Difference,[2]; [27],−0.41
N#Cc1ccc(Oc2ccc3c(c2)COB3O)cc1 [Crisaborole],Cholesterol-free media + simvastatin (0.04 μM),[1]; [23],1.417
same,Complete Media,[1]; [24],0.9479
same,Difference,[1]; [19],−0.47
same,Difference,[2]; [20],−0.14
same,Cholesterol-free,[2]; [6],1.199
same,Complete,[2]; [15],1.059
